Results from the NIST ThermoML archive (doi:10.1016/j.fluid.2014.12.003).
Numbers after ± are expanded uncertainties.

Conditions: 298.15 K; 101.33 kPa; Liquid; Vibrating tube method

| Compound | mass density |
| --- | --- |
| CCCC[N+]1(C)CCCC1.N#CC(=C=[N-])C#N [1-butyl-1-methylpyrrolidinium tricyanomethanide] | 1006.75 ± 1.3 kg/m3 |
| CCCC[N+]1(C)CCOCC1.N#C[C-](C#N)C#N [4-butyl-4-methylmorpholinium tricyanomethanide] | 1067.06 ± 1.3 kg/m3 |
| c1ccccc1 [benzene] | 873.53 ± 1 kg/m3 |
| CCCCCCCCCCO [decan-1-ol] | 826.38 ± 1 kg/m3 |
| CCc1ccccc1 [ethylbenzene] | 862.97 ± 1 kg/m3 |
| CCCCCCC [heptane] | 679.55 ± 1 kg/m3 |
| CCCCCCO [hexan-1-ol] | 814.94 ± 1 kg/m3 |
| CCCCCCCCO [octan-1-ol] | 823.27 ± 1 kg/m3 |
| c1ccsc1 [thiophene] | 1058.48 ± 1 kg/m3 |
| Cc1ccccc1 [toluene] | 863.67 ± 1 kg/m3 |
